This note sets out measurements from patent US7868206B2, “Trihalomethionine derivative and pharmaceutical product containing the same” (National University Corporation, Gunma University, priority 2005, dated 2011).

The structures appear in SMILES notation. pIC50: −log10 of the molar value. Where “and” joins values, the source holds several entries; their conditions need not be identical. Equal entries are not always repeated. Entries after “also recorded” stand apart in the source; their conditions may differ. Structures can show the parent of a compound that is named as a salt. Where two headings read alike, the source gives them in different places.

In test [1] the test system is Entamoeba histolytica HM1: IMSS c16 strain. The experiment in a line: Inhibition of proliferation of Entamoeba histolytica, anaerobic culture in 96-well plate, 72 hours, WST-1 (Example 2). It counts as cell-based. The conditions noted are these: for pIC50: Entamoeba histolytica, 0.25 to 20 μM, anaerobic culture, read-out: IC50 (concentration required to inhibit proliferation by 50% compared to untreated controls). As for the experimental part:
The Entamoeba histolytica HM1: IMSS c16 strain was cultured for 18 hours in a medium containing each compound at a concentration of 80 μM. […] The cell number was measured by determining the number of living cells of Entamoeba histolytica using WST-1 (Roche Diagnostics K.K.).
The killing effects of each of the compounds: trifluoromethionine (TFM), trifluoromethionine amide (WY200), SK254, SK258, WY241, WY244, WY252, K010, SK276, SK316, SK336, and SK337 on Entamoeba histolytica HM1: IMSS c16 strain were examined. The Entamoeba histolytica HM1: IMSS c16 strain was anaerobically cultured in a medium containing each compound at a concentration of 0.25 to 20 μM in a 96-well plate: The number of cells after 72 hours was determined in the same way as Example 1. […] It was found from the results that many compounds including SK337 killed the Entamoeba histolytica protozoan at concentrations more than 10-fold lower than the concentration of trifluoromethionine.
For orientation: Tetrazolium assays rely on reduction of a dye to a coloured formazan, in cell work by metabolically active cells.

Test [2] shares this test system. The conditions noted are these: for Total liver weight / Liver non-abscess portions / Liver abscess portions: individual hamsters A, B, C; for Liver abscess portions: dash = no abscess (total = non-abscess). The protocol:
Next, the compound of the present invention was evaluated in an animal infection experiment using a hamster liver abscess model. First, an Entamoeba histolytica HM1: IMSS c16 strain was injected to 3-week-old female hamsters to induce liver abscesses. […] In Table 2, A, B, and C in the respective groups show individual hamsters used. Many other compounds (trifluoromethionine, SK254, SK258, WY241, WY244, and WY252) were evaluated in animal infection experiments in the same way as Example 3.

For test [3] the test system is unchanged. As to the kind of experiment: Killing effect on Entamoeba histolytica, living cell number by WST-1 after 18 hours (Example 1, FIG. 1). Type of test: cell-based. The conditions noted are these: 80 μM, 18 hours culture. As for the experimental part:
The killing effect of each of the compounds: trifluoromethionine (TFM), trifluoromethionine amide (WY200), metronidazole (known anti-amoeba drug) on an Entamoeba histolytica HM1: IMSS c16 strain was examined. The Entamoeba histolytica HM1: IMSS c16 strain was cultured for 18 hours in a medium containing each compound at a concentration of 80 μM. […] The cell number was measured by determining the number of living cells of Entamoeba histolytica using WST-1 (Roche Diagnostics K.K.).

[4] abbreviates: intraperitoneal 3 μmol (1.1 to 1.3 mg) per hamster (body weight 28 to 37 g).
[5] abbreviates: intraperitoneal 3 μmol per hamster.
Where [6] appears, read: intraperitoneal 3 μmol (1.1 to 1.3 mg) per hamster (body weight 28 to 37 g), hydrochloride.
The mark [7] stands for this setting: intraperitoneal 3 μmol per hamster, hydrochloride.

Consider `N[C@@H](CSC(F)(F)F)C(=O)NCc1ccccc1` [SK316, (R)-2-amino-N-benzyl-3-(trifluoromethylthio)propanamide hydrochloride], for which the pIC50 in test [1] was 5.05.
As to `COc1cc(NC(=O)[C@@H](N)CCSC(F)(F)F)cc(OC)c1.Cl` [WY252, 1-(3,5-dimethoxy-phenylcarbamoyl)-3-trifluoromethylsulfanyl-propylammonium chloride], the Total liver weight result in test [2] (setting [4]) is “A. 2,539 mg; also recorded: B. 3,338 mg; also recorded: C. 2,687 mg”. In test [2] (setting [5]), the Liver non-abscess portions was 2,1204 mg and 3,338 mg and 2,687 mg; the Liver abscess portions was 19 mg. In test [1], the pIC50 was 5.80.
As to `Cl.N[C@@H](CCSC(F)(F)F)C(=O)Nc1ccccc1` [SK258, (S)-2-amino-N-phenyl-4-(trifluoromethylthio)butanamide hydrochloride], the Total liver weight entry in test [2] (setting [6]) was “A. 2,071 mg; also recorded: B. 2,768 mg; also recorded: C. 1,510 mg”. For the same compound, the Liver non-abscess portions in test [2] (setting [7]) was 2,071 mg and 2,768 mg and 1,510 mg. Besides, the pIC50 in test [1] is 5.60.
With `COc1cc(NC(=O)[C@@H](N)CCSC(F)(F)F)cc(OC)c1OC` [SK336, (S)-2-amino-N-(3,4,5-trimethoxyphenyl)-4-(trifluoromethylthio)butanamide hydrochloride], the pIC50 in test [1] was 5.77.
As for `Cl.N[C@@H](CCSC(F)(F)F)C(=O)Nc1ccc(Br)cc1` [WY241, 1-(4-bromophenylcarbamoyl)-3-trifluoromethylsulfanyl-propyl-ammonium chloride], in test [2] (setting [4]), the Total liver weight entry was “A. 2,916 mg; also recorded: B. 2,371 mg; also recorded: C. 2,900 mg”. Further, the Liver non-abscess portions in test [2] (setting [5]) is 2,916 mg and 2,371 mg and 2,900 mg. Besides, the pIC50 in test [1] was 4.93.
In the case of `NC(CSC(F)(F)F)C(=O)Nc1ccccc1` (stereo in doubt) [KO10, (S)-2-amino-N-phenyl-3-(trifluoromethylthio)propanamide hydrochloride], the pIC50 in test [1] was 4.86.
Consider `Cl.N[C@@H](CCSC(F)(F)F)C(=O)Nc1ccc(F)cc1F` [WY244, 1-(2,4-difluoro-phenylcarbamoyl)-3-trifluoromethylsulfanyl-propyl-ammonium chloride], for which the Total liver weight entry in test [2] (setting [4]) was “A. 2,575 mg; also recorded: B. 2,181 mg; also recorded: C. 2,570 mg”. In test [2] (setting [5]), the Liver non-abscess portions was 2,561 mg and 2,181 mg and 2,570 mg; the Liver abscess portions is 14 mg. The pIC50 in test [1] was 5.26.
Consider `Cl.N[C@@H](CCSC(F)(F)F)C(=O)NCc1ccccc1` [SK254, (S)-2-amino-N-benzyl-4-(trifluoromethylthio)butanamide hydrochloride], for which the Total liver weight result in test [2] (setting [6]) is “A. 2,318 mg; also recorded: B. 2,193 mg; also recorded: C. 2,386 mg”. Besides, in test [2] (setting [7]), the Liver non-abscess portions was 2,318 mg and 2,193 mg and 2,386 mg. Further, in test [1], the pIC50 was 5.60.
With `N[C@@H](CCSC(F)(F)F)C(=O)NC1CCc2ccccc21` (stereo partly drawn) [SK276, (2S)-2-amino-N-(2,3-dihydro-1H-inden-1-yl)-4-(trifluoromethylthio) butanamide hydrochloride], the pIC50 in test [1] is 5.17.
Take `NC(=O)[C@@H](N)CCSC(F)(F)F` [WY200, trifluoromethionine amide]: the Total liver weight result in test [2] (setting [4]) is recorded as “A. 3,059 mg; also recorded: B. 1,624 mg”. Also, the Liver non-abscess portions in test [2] (setting [5]) is 3,059 mg and 1,624 mg. In addition, in test [2] (intraperitoneal 40 μmol), the “increase of total weights of the liver (in words)” value is “did not increase the total weights of the liver”; the “liver abscess formation (in words)” value is “caused no liver abscess”; the Liver non-abscess portions is 2814 mg and 2145 mg. For the same compound, the Total liver weight entry in test [2] (intraperitoneal 40 μmol, 3-week-old female hamsters) is given as “B. 2814 mg; also recorded: A. 2157 mg”. Further, the “killing effect on Entamoeba histolytica (number of living cells)” value in test [3] is on record as “more effectively than trifluoromethionine”.
Consider `COc1ccc(NC(=O)[C@@H](N)CCSC(F)(F)F)cc1OC.Cl` [SK337, (S)-2-amino-N-(3,4-dimethoxyphenyl)-4-(trifluoromethylthio)butanamide hydrochloride], for which the pIC50 in test [1] was 5.82. For the same compound, the “concentration lower than the concentration of trifluoromethionine” value in test [1] (compared with trifluoromethionine) is reported as “more than 10 fold”.
Turning to `N[C@@H](CCSC(F)(F)F)C(=O)O` [TFM, trifluoromethionine, reference compound], the Total liver weight entry in test [2] (setting [4]) was “A. 2,240 mg; also recorded: B. 2,415 mg; also recorded: C. 2,575 mg”. In test [2] (setting [5]), the Liver non-abscess portions was 2,240 mg and 2,415 mg and 2,575 mg. For the same compound, in test [1], the pIC50 was 4.76.
